Where two headings read alike, the source gives them in different places.
System: HCV 1b genotype
Test: HCV Replicon assay (HCV 1b genotype)
Type: cell-based
Conditions: Hepatitis C virus, HCV 1b genotype replicon
Procedure, shortened: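 Cell-based HCV genotype 1b replicon assay in HCV-neo replicon cells, including replicons carrying NS5A resistance substitutions; luciferase reporter read-outs also used.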

[1] = read-out: Range (EC50 values against HCV 1b)

SMILES	EC50 [1]	EC50 (read-out: EC50)
COC(=O)N[C@H](C(=O)N1CCC[C@H]1c1nc2ncc(-c3ccc4cc(-c5cnc6nc([C@@H]7CCCN7C(=O)[C@@H](NC(=O)OC)C(C)C)[nH]c6c5)ccc4c3)cc2[nH]1)C(C)C [Example 22, Methyl((1S)-1-(((2S)-2-(6-(6-(2-((2S)-1-((2S)-2-((methoxycarbonyl)amino)-3-methylbutanoyl)-2-pyrrolidinyl)-1H-imidazo[4,5-b]pyridin-6-yl)-2-naphthyl)-1H-imidazo[4,5-b]pyridin-2-yl)-1-pyrrolidinyl)carbonyl)-2-methylpropyl)carbamate]	0.0101 to 1 nM	
COC(=O)N[C@H](C(=O)N[C@@H](C)c1ncc(-c2ccc(-c3ccc4cc(-c5cnc([C@H](C)NC(=O)[C@@H](NC(=O)OC)C6CCOCC6)[nH]5)ccc4c3)cc2)[nH]1)C1CCOCC1 [Example 125, Methyl((1S)-2-(((1S)-1-(4-(4-(6-(2-((1S)-1-(((2S)-2-((methoxycarbonyl)amino)-2-(tetrahydro-2H-pyran-4-yl)acetyl)amino)ethyl)-1H-imidazol-4-yl)-2-naphthyl)phenyl)-1H-imidazol-2-yl)ethyl)amino)-2-oxo-1-(tetrahydro-2H-pyran-4-yl)ethyl)carbamate]	0.0101 to 1 nM	0.136 nM
O=C([C@@H](c1ccccc1)N1CCCCC1)N1CCC[C@H]1c1nc2cc(-c3ccc4ccc(-c5ccc6nc([C@@H]7CCCN7C(=O)[C@@H](c7ccccc7)N7CCCCC7)[nH]c6c5)cc4c3)ccc2[nH]1 [Example 15, 5,5′-(2,7-Naphthalenediyl)bis(2-((2S)-1-((2R)-2-phenyl-2-(1-piperidinyl)acetyl)-2-pyrrolidinyl)-1H-benzimidazole)]	0.0101 to 1 nM	
COC(=O)N[C@H](C(=O)N1[C@@H]2C[C@@H]2C[C@H]1c1ncc(-c2cnc3cc(-c4ccc5nc([C@@H]6C[C@H]7C[C@H]7N6C(=O)[C@@H](NC(=O)OC)C6CCOCC6)[nH]c5c4)ccc3n2)[nH]1)C1CCOCC1 [Example 58, Methyl((1S)-2-((1R,3S,5R)-3-(4-(6-(2-((1R,3S,5R)-2-((2S)-2-((methoxycarbonyl)amino)-2-(tetrahydro-2H-pyran-4-yl)acetyl)-2-azabicyclo[3.1.0]hex-3-yl)-1H-benzimidazol-5-yl)-2-quinoxalinyl)-1H-imidazol-2-yl)-2-azabicyclo[3.1.0]hex-2-yl)-2-oxo-1-(tetrahydro-2H-pyran-4-yl)ethyl)carbamate]	0.0101 to 1 nM	0.849 nM
COc1cccc2c(C(=O)N3[C@@H]4C[C@@H]4C[C@H]3c3ncc(C#Cc4ccc5cc(-c6cnc([C@@H]7C[C@H]8C[C@H]8N7C(=O)c7nc(Cl)cc8c(OC)cccc78)[nH]6)ccc5c4)[nH]3)nc(Cl)cc12 [Example 93, 3-Chloro-1-(((1R,3S,5R)-3-(4-(6-((2-((1R,3S,5R)-2-((3-chloro-5-methoxy-1-isoquinolinyl)carbonyl)-2-azabicyclo[3.1.0]hex-3-yl)-1H-imidazol-4-yl)ethynyl)-2-naphthyl)-1H-imidazol-2-yl)-2-azabicyclo[3.1.0]hex-2-yl)carbonyl)-5-methoxyisoquinoline]	1.01 to 1000 nM	40 nM
COC(=O)N[C@H](C(=O)N1CCC[C@H]1c1ncc(-c2ccc(-c3ccc4ccc(-c5ccc6nc([C@@H]7CCCN7C(=O)[C@@H](NC(=O)OC)C(C)C)[nH]c6c5)cc4c3)cc2)[nH]1)C(C)C [Example 4, Methyl((1S)-1-(((2S)-2-(4-(4-(7-(2-((2S)-1-((2S)-2-((methoxycarbonyl)amino)-3-methylbutanoyl)-2-pyrrolidinyl)-1H-benzimidazol-5-yl)-2-naphthyl)phenyl)-1H-imidazol-2-yl)-1-pyrrolidinyl)carbonyl)-2-methylpropyl)carbamate]	1.01 to 1000 nM	
COC(=O)N[C@@H](C)C(=O)N1CCC[C@H]1c1nc2cc(-c3ccc4ccc(-c5ccc6nc([C@@H]7CCCN7C(=O)[C@H](C)NC(=O)OC)[nH]c6c5)cc4c3)ccc2[nH]1 [Example 13, Methyl((1S)-2-((2S)-2-(5-(7-(2-((2S)-1-(N-(methoxycarbonyl)-L-alanyl)-2-pyrrolidinyl)-1H-benzimidazol-5-yl)-2-naphthyl)-1H-benzimidazol-2-yl)-1-pyrrolidinyl)-1-methyl-2-oxoethyl)carbamate]	1.01 to 1000 nM	
O=C(OCc1ccccc1)N1CCC[C@H]1c1nc2cc(-c3ccc4cc(-c5cnc6[nH]c([C@@H]7CCCN7C(=O)OCc7ccccc7)nc6c5)ccc4c3)cnc2[nH]1 [Intermediate 114, Benzyl(2S)-2-(6-(6-(2-((2S)-1-((benzyloxy)carbonyl)-2-pyrrolidinyl)-1H-imidazo[4,5-b]pyridin-6-yl)-2-naphthyl)-3H-imidazo[4,5-b]pyridin-2-yl)-1-pyrrolidinecarboxylate]	1.01 to 1000 nM	
CC(=O)N1[C@@H](C)CC[C@H]1c1ncc(-c2ccc(-c3ccc4cc(-c5cnc([C@@H]6CC[C@H](C)N6C(C)=O)[nH]5)ccc4c3)cc2)[nH]1 [Example 109, 2-((2S,5S)-1-Acetyl-5-methyl-2-pyrrolidinyl)-4-(4-(6-(2-((2S,5S)-1-acetyl-5-methyl-2-pyrrolidinyl)-1H-imidazol-4-yl)-2-naphthyl)phenyl)-1H-imidazole]	1.01 to 1000 nM	180 nM
COC(=O)N[C@H](C(=O)N[C@@H](C)c1ncc(-c2ccc(-c3ccc4cc(-c5cnc([C@H](C)NC(=O)[C@@H](NC(=O)OC)C(C)C)[nH]5)ccc4c3)cc2)[nH]1)C(C)C [Example 124, Methyl((1S)-1-(((1S)-1-(4-(4-(6-(2-((1S)-1-(((2S)-2-((methoxycarbonyl)amino)-3-methylbutanoyl)amino)ethyl)-1H-imidazol-4-yl)-2-naphthyl)phenyl)-1H-imidazol-2-yl)ethyl)carbamoyl)-2-methylpropyl)carbamate]	0.0101 to 1 nM	

From US9006455B2 (Bristol-Myers Squibb Company, priority 2009, dated 2015)
